Experimental data from patent EP4778516A1, “CALCIFICATION ENHANCER FOR OSTEOBLAST MC3T3-E1 CELL” (Watanabe Oyster Laboratory Co., Ltd., priority 2023, dated 2025).

Assays:
[1] = test system: MC3T3-E1 cells; assay: Effects of conditioned medium of LPS-stimulated RAW264.7 cells on MC3T3-E1 cells; type: cell-based, mouse; conditions: Bay 11-7082 1 or 10 nM, conditioned medium 0.5 ml per well
Procedure: A conditioned medium was obtained by culturing RAW264.7 cells.
RAW264.7 cells (1×10^5 cells/ml per well in a 24-well plate) were cultured for 3 days after reaching subconfluence in DMEM containing 10% FBS and 1% P/S in the presence or absence of LPS (concentration in the medium: 100 ng/ml). After the cells were cultured, the medium (conditioned medium) was collected.
To evaluate the effects of the conditioned medium on proliferation of MC3T3-E1 cells, MC3T3-E1 cells were cultured for 3 days in a-MEM containing 10% FBS and 1% P/S. The cells were then cultured for 3 days using either the conditioned medium (1 ml, control) cultured without LPS or the conditioned medium (0.25 or 0.50 ml per well, adjusted to 1 ml with normal medium) cultured with LPS in the presence or absence of DHMBA (1 or 10 mM).
Further, to examine the effects on cell death of MC3T3-E1 cells, the cells (1×10^5 cells/ml per well) were cultured for 3 days in a-MEM containing 10% FBS and 1% P/S. After reaching subconfluence, the medium was replaced. The cells were then further cultured for 48 hours in either the normal medium, the conditioned medium (1 ml) cultured without LPS, or the conditioned medium (0.25 or 0.50 ml per well, adjusted to 1 ml with normal medium) with either a reagent vehicle (1% ethanol as final concentration) or DHMBA (1 or 10 mM). After culture, the cells were detached from each culture well, and cell numbers were counted in the same manner as described above.
Further, the effects of Bay 11-7082, which is an NF-kB signaling inhibitor, on proliferation or cell death of MC3T3-E1 cells were investigated. First, to examine the effects of Bay 11-7082 on proliferation of MC3T3-E1 cells, the cells (1×10^5 cells/1 ml per well in a 24-well plate) were cultured for 3 days until reaching subconfluence in the presence of 10% FBS, 1% P/S, and either a reagent vehicle (1% ethanol as final concentration) or Bay 11-7082 (1, 10, 50, 100, or 1000 nM). Next, MC3T3-E1 cells were cultured for 3 days in the presence of the conditioned medium (0.5 ml per well, adjusted to a total of 1 ml with normal medium) with or without Bay 11-7082 (1 or 10 nM) in the presence or absence of DHMBA (10 mM).
In another experiment, to evaluate the effects of Bay 11-7082 on cell death of MC3T3-E1, the cells (1×10^5 cells/1 ml per well in a 24-well plate) were cultured in a-MEM containing 10% FBS and 1% P/S. After culturing for 3 days until reaching subconfluence, the medium was replaced with a-MEM (1 ml) containing either the normal medium or the conditioned medium prepared by adding the normal medium to 0.5 ml per well of the conditioned medium, adjusted to a total volume of 1 ml. The cells were then further cultured for 48 hours in the presence of Bay 11-7082 (1 or 10 nM), or Bay 11-7082 (10 nM) in combination with DHMBA (10 mM). After culture, the cells were detached from each culture well, and cell numbers were counted as described above.

[2] = test system: MC3T3-E1 cells; assay: Cell proliferation assay (cell counting); type: cell-based, mouse; conditions: Bay 11-7082 1, 10, or 50 nM, 3 days; Fig. 7B
Procedure: To examine progression of cell proliferation, MC3T3-E1 cells (1×10^5/ml medium per well) were cultured using a 24-well plate in a-MEM supplemented with 10% FBS and 1% P/S at 37°C in a water-saturated atmosphere containing 5% CO2 and 95% air. The cells were cultured for 1, 2, 3, 4, or 5 days in the presence of a vehicle (1% ethanol as final concentration) or DHMBA (10 mM). In another experiment, to evaluate the effects of increased concentrations of DHMBA on MC3T3-E1 cells, the cells (1×10^5/ml per well) were cultured using a 24-well plate in DMEM (containing 10% FBS and 1% P/S). The cells were cultured for 3 days in the presence of either a reagent vehicle (1% ethanol as final concentration) or DHMBA (0.1, 1, 10, 100, or 1000 mM).
To evaluate the effects of DHMBA on cell death of osteoblasts MC3T3-E1, the cells (1×10^5/ml medium per well in a 24-well plate) were cultured in a-MEM containing 10% FBS and 1% P/S. After culturing for 3 days until reaching subconfluence, either a reagent vehicle (1% ethanol as final concentration) or DHMBA (0.1, 1, 10, 100, or 1000 mM) was added, and the cells were further cultured for 48 hours. After culture, to count the number of cells attached to each well, a […] containing 0.05% trypsin and EDTA (0.1 ml per well) was added, and then the culture plates were incubated at 37°C for 2 minutes. Subsequently, a-MEM (0.9 ml) containing 10% FBS and 1% P/S was added, and the cells were detached and mixed by pipetting. The cell suspension (0.1 ml) was mixed with 0.1 ml of 0.5% trypan blue staining solution. By this staining, […]. Viable cells were counted under a microscope (Olympus MTV-3) using a hemocytometer (Sigma-Aldrich, St. Louis, MO) and a cell counter (H-102P, Line Seiki Co., Ltd., Tokyo, Japan), and the average of two counts was calculated. Cell numbers were expressed as the number per well.

Compound: Cc1ccc(S(=O)(=O)/C=C/C#N)cc1 [Bay 11-7082, reference compound]
- effects of the conditioned medium on enhancement of cell death of MC3T3-E1 cells ([1]; 48 hours, Fig. 7D): suppressed
- effects of the conditioned medium on inhibition of proliferation of MC3T3-E1 cells ([1]; 3 days, Fig. 7C): suppressed
- number of MC3T3-E1 cells [2]: did not cause a significant reduction
